Data as given in patent US6489470B1, “Process for the preparation of cefpodoxime proxetil diastereoisomers” (Biochemie Gesellschaft m.b.H., priority 1998, dated 2002).

Experiment: bioequivalence with a commercial form for oral administration
Type: in vivo
Settings: mixture of diastereoisomers, diastereoisomeric ratio (B/A+B) of 0.5 to 0.6

In the case of `COCC1=C(C(=O)OC(C)OC(=O)OC(C)C)N2C(=O)[C@@H](NC(=O)/C(=N\OC)c3csc(N)n3)C2SC1` (mixture of isomers) [cefpodoxim proxetil, 7-[2-(2-aminothiazol-4-yl)-2-(Z)-(methoxyimino)acetamido]-3-methoxymethyl-3-cephem-4-carboxylic acid-1-(isopropoxycarbonyloxy)ethyl ester], the “bioequivalence with a commercial form” value is reported as “bioequivalent”.
